Key:
[1] = test system: intracellular GSH in normal cells (NIH 3T3, BNL CL.2, KC, and MCF 10A); details: GSH-MME 5 mM, 8 h
Experimental: (§1) It has been reported that GSH levels in tumor tissues, such as ovarian, head and neck, breast, and lung cancer are higher than that in normal tissues. To probe whether the high GSH level is also prevail in cancer cells in vitro, GSH-Glo™ Glutathione Assay was employed. Briefly, tumor and normal cells were seeded in 96-well white plate (5,000 cells/well) overnight prior to the study. BSO (1 mM) or GSH-MME (5 mM) in culture medium was added. For control group, only fresh culture medium was added. Cells were incubated for 8 h, and the intracellular GSH concentration was measured by GSH-Glo™ Glutathione Assay according to the manufacturer's instruction.
(§2) Accordingly, glutathione-monomethylester (GSH-MME, 5 mM) and buthionine sulfoxamine (BSO, 1 mM) were employed to boost or deplete the intracellular GSH level in normal cells (NIH 3T3, BNL CL.2, KC, and MCF 10A) or cancer cells (NCI/ADR-Res, HCT 116, UMSCC 22A, SKOV-3, and MDA-MB-231), respectively.

SKOV-3 cells [2] = experiment: Cellular uptake of Cy5 labeled nanoparticles, flow cytometry and confocal microscopy; type: cell-based; details: DTNB binds exofacial free thiol groups
Experimental: FIG. 9 presents […] spectra of SKOV-3 (left) and NIH 3T3 (right) cells. Cellular uptake assays were carried out 1 h after the addition of nanoparticles. Scale bars were 20 μm.
FIG. 10 presents the flow cytometry spectra of SKOV-3 (left) and NIH 3T3 (right) cells treated with Cy5 labeled PDA-PEG nanoparticles. Cellular uptake assays were carried out 1 h after the addition of nanoparticles.
PDA-PEG was modified by Cy5 for cellular uptake study. Briefly, cysteamine (0.11 mg, 5% PDA function group) in 500 μL DMSO was added dropwise into 20 mg PDA-PEG in 500 μL DSMO and the reaction mixture was kept at room temperature overnight. After overnight reaction, Cy5-NHS ester (0.39 mg in 390 μL DMSO) was added and the mixture was kept for reacting overnight, following a thoroughly dialysis towards DMSO to remove free Cy5. The concentration of Cy5 in the final product was measured by a microplate reader (SpectraMax® M5. Molecular Devices Inc) at λex640 and λem680.
To probe the mechanism for PDA-PEG/Cu^2+ selectively killing cancer cells, the cellular uptake of PDA-PEG and PDA-PEG/Cu^2+ nanoparticle was investigated with flow cytometry and confocal microscopy. […] Therefore, the uptake of PDA-PEG/Cu^2+ wasn't the reason for its cancer-cell-selectivity. 5,5′-Dithio-bis-(2-nitrobenzoic acid) (DTNB) is a compound binds the free thiol groups on the surface of cell membrane. […]

SKOV-3 cells [3] = experiment: Cell cycle analysis by flow cytometry; type: cell-based; details: 41.58 μM, 12 h, FIG. 14
Experimental: FIG. 14 presents cell cycle analysis of SKOV-3 cells after treated with 41.58 μM of PDA-PEG/Cu2+ for 12 h. Flow cytometry spectra (A) and quantitive analysis (B) of cell cycle. Data represent the means±SD, n=3. *p<0.01.
CDKN1C is an inhibitor for G1 cyclin/Cdk complexes and causes cell arrest in G1 phase. To investigate the effect of CDKN1C up-regulation after PDA-PEG/Cu^2+treatment, cell cycle analysis was employed.

[4] = test system: intracellular GSH in NCI/ADR-Res, UMSCC 22A, and SKOV-3 cells; experiment: GSH-Glo Glutathione Assay, intracellular GSH level; type: cell-based; details: BSO 1 mM, 8 h
Experimental: as §1, §2

COC(=O)CNC(=O)[C@H](CS)NC(=O)CC[C@H](N)C(=O)O [GSH-MME, Glutathione monomethylester]
intracellular GSH level [1]: higher intracellular GSH level

O=C(O)c1cc(SSc2ccc([N+](=O)[O-])c(C(=O)O)c2)ccc1[N+](=O)[O-] [DTNB, 5,5′-Dithio-bis-(2-nitrobenzoic acid)]
effect on cellular uptake of PDA-PEG (SKOV-3 cells [2]): significantly inhibited

[Cl][Cu][Cl] [Cu^2+ ion, CuCl2]
effect on cell cycle distribution (SKOV-3 cells [3]): did not show any effect

CCCCS(=N)(=O)CCC(N)C(=O)O (stereo not shown) [BSO, Buthionine sulfoximine]
intracellular GSH level [4]: declined GSH level

— patent publication US10221271B2, “Polymer/copper combination for targeted cancer therapy” (University of South Carolina, priority 2014, dated 2019)
